Read-outs that look alike come from different tables or passages of the source.
Molecular target: T1, ER (Homo sapiens, UniProt P03372)
T1 construct: host or cells: T47D and MCF7 human breast cancer cells
T1 sequence (P03372 1-595): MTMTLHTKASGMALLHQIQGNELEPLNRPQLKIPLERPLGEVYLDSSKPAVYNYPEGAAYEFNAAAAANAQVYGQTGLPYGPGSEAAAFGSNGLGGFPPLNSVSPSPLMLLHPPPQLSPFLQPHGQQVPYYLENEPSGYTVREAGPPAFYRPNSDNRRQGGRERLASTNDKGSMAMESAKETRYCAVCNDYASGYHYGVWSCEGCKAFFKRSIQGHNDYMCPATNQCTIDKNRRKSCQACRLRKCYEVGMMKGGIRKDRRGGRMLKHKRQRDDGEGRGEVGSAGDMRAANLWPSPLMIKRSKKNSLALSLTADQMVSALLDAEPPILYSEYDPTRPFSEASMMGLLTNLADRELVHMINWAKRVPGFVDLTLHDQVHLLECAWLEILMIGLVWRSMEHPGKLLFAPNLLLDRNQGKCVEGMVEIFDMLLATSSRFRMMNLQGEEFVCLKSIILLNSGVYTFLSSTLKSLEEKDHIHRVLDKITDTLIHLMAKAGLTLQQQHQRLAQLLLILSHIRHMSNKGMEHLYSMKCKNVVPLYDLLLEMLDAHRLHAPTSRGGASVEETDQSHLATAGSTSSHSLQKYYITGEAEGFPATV
Test: ER degradation activity, in-cell western blot analysis in T47D cells
Assay type: cell-based
How it was run: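 T47D cells grown in DMEM with 10% FBS were treated with compounds for 16 hours at 0.5% DMSO final. ER was detected by in-cell western using 680/800 near-infrared secondary antibodies. Residual ER is given as percent of untreated and DMSO-treated wells set to 100%.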

[1] = 16 hours, Table A does not say which cell line (T47D or MCF7), read-out: Potency (DC50)
[2] = compounds 16 hours, Table A does not say whether T47D or MCF7, read-out: Potency (DC50)

| SMILES | DC50 [1] [nM] | DC50 [2] [nM] |
| --- | --- | --- |
| O=C1CCC(N2C(=O)c3cc4c(cc3C2=O)CN(CC2(F)CCN(C(=O)C3CN(c5ccc([C@@H]6c7ccc(O)cc7CC[C@@H]6c6ccccc6)cc5)C3)CC2)C4)C(=O)N1 (stereo partly drawn) [E 199, 2-(2,6-dioxopiperidin-3-yl)-6-((4-fluoro-1-(1-(4-((1R,2S)-6-hydroxy-2-phenyl-1,2,3,4-tetrahydronaphthalen-1-yl)phenyl)azetidine-3-carbonyl)piperidin-4-yl)methyl)-6,7-dihydropyrrolo[3,4-f]isoindole-1,3(2H,5H)-dione] | > 100 |  |
| C[C@@H]1Cc2c([nH]c3ccccc23)[C@@H](c2c(F)cc(C3CCC(CN4CCC(N5Cc6cc7c(cc6C5)C(=O)N(C5CCC(=O)NC5=O)C7=O)CC4)CC3)cc2F)N1CC(F)F (stereo partly drawn) [E 282, 6-(1-((4-(4-((1R,3R)-2-(2,2-difluoroethyl)-3-methyl-2,3,4,9-tetrahydro-1H-pyrido[3,4-b]indol-1-yl)-3,5-difluorophenyl)cyclohexyl)methyl)piperidin-4-yl)-2-(2,6-dioxopiperidin-3-yl)-6,7-dihydropyrrolo[3,4-f]isoindole-1,3(2H,5H)-dione] | > 100 |  |
| C[C@@H]1Cc2c([nH]c3ccccc23)[C@@H](c2ccc(N3CCC4(CC3)CN(C(=O)CN3Cc5cc6c(cc5C3)C(=O)N(C3CCC(=O)NC3=O)C6=O)C4)cc2)N1CC(F)F (stereo partly drawn) [E 262, 6-(2-(7-(4-((1R,3R)-2-(2,2-difluoroethyl)-3-methyl-2,3,4,9-tetrahydro-1H-pyrido[3,4-b]indol-1-yl)phenyl)-2,7-diazaspiro[3.5]nonan-2-yl)-2-oxoethyl)-2-(2,6-dioxopiperidin-3-yl)-6,7-dihydropyrrolo[3,4-f]isoindole-1,3(2H,5H)-dione] | 10 to 100 |  |
| O=C1CCC(N2C(=O)c3cc4c(cc3C2=O)CN(CC2CN(CC3CN(c5ccc([C@@H]6c7ccc(O)cc7CC[C@@H]6c6ccc(F)cc6)cc5)C3)C2)C4)C(=O)N1 (stereo partly drawn) [E 278, 2-(2,6-dioxopiperidin-3-yl)-6-((1-((1-(4-((1R,2S)-2-(4-fluorophenyl)-6-hydroxy-1,2,3,4-tetrahydronaphthalen-1-yl)phenyl)azetidin-3-yl)methyl)azetidin-3-yl)methyl)-6,7-dihydropyrrolo[3,4-f]isoindole-1,3(2H,5H)-dione] | > 100 |  |
| O=C1CCC(N2C(=O)c3cc4c(cc3C2=O)CN(CC(=O)N2CCC3(CC2)CCN(c2ccc([C@@H]5c6ccc(B(O)O)cc6CC[C@@H]5c5ccccc5)cc2)CC3)C4)C(=O)N1 (mixture of isomers) [E 180, Rac-((5R,6S)-5-(4-(9-(2-(6-(2,6-dioxopiperidin-3-yl)-5,7-dioxo-3,5,6,7-tetrahydropyrrolo[3,4-f]isoindol-2(1H)-yl)acetyl)-3,9-diazaspiro[5.5]undecan-3-yl)phenyl)-6-phenyl-5,6,7,8-tetrahydronaphthalen-2-yl)boronic acid] | 10 to 100 |  |
| O=C1CCC(N2C(=O)c3cc4c(cc3C2=O)CN(CC(=O)N2CC3(CCN(c5ccc([C@@H]6c7ccc(O)cc7CC[C@@H]6c6ccccc6)cc5)CC3)C2)CCC4)C(=O)N1 (stereo partly drawn) [E 171, 2-(2,6-dioxopiperidin-3-yl)-6-(2-(7-(4-((1R,2S)-6-hydroxy-2-phenyl-1,2,3,4-tetrahydronaphthalen-1-yl)phenyl)-2,7-diazaspiro[3.5]nonan-2-yl)-2-oxoethyl)-6,7,8,9-tetrahydroazepino[3,4-f]isoindole-1,3(2H,5H)-dione] | > 100 |  |
| C[C@@H]1Cc2c([nH]c3ccccc23)[C@@H](c2c(F)cc(N3CC(F)(C(=O)N4CCC(CN5Cc6cc7c(cc6C5)C(=O)N(C5CCC(=O)NC5=O)C7=O)CC4)C3)cc2F)N1CC(F)F (stereo partly drawn) [E 209, 6-((1-(1-(4-((1R,3R)-2-(2,2-difluoroethyl)-3-methyl-2,3,4,9-tetrahydro-1H-pyrido[3,4-b]indol-1-yl)-3,5-difluorophenyl)-3-fluoroazetidine-3-carbonyl)piperidin-4-yl)methyl)-2-(2,6-dioxopiperidin-3-yl)-6,7-dihydropyrrolo[3,4-f]isoindole-1,3(2H,5H)-dione] | 10 to 100 |  |
| C[C@@H]1Cc2c([nH]c3ccccc23)[C@@H](c2c(F)cc(N3CC4(CCN(CC(=O)N5Cc6cc7c(cc6C5)C(=O)N(C5CCC(=O)NC5=O)C7=O)C4)C3)cc2F)N1CC(F)F (stereo partly drawn) [E 74, 6-(2-(2-(4-((1R,3R)-2-(2,2-difluoroethyl)-3-methyl-2,3,4,9-tetrahydro-1H-pyrido[3,4-b]indol-1-yl)-3,5-difluorophenyl)-2,6-diazaspiro[3.4]octan-6-yl)acetyl)-2-(2,6-dioxopiperidin-3-yl)-6,7-dihydropyrrolo[3,4-f]isoindole-1,3(2H,5H)-dione] | 10 to 100 |  |
| C[C@@H]1Cc2c([nH]c3ccccc23)[C@@H](c2c(F)cc(N3CCC4(CC3)CC(C(=O)N3CCC(CN5Cc6cc7c(cc6C5)C(=O)N(C5CCC(=O)NC5=O)C7=O)CC3)C4)cc2F)N1CC(F)F (stereo partly drawn) [E 99, 6-((1-(7-(4-((1R,3R)-2-(2,2-difluoroethyl)-3-methyl-2,3,4,9-tetrahydro-1H-pyrido[3,4-b]indol-1-yl)-3,5-difluorophenyl)-7-azaspiro[3.5]nonane-2-carbonyl)piperidin-4-yl)methyl)-2-(2,6-dioxopiperidin-3-yl)-6,7-dihydropyrrolo[3,4-f]isoindole-1,3(2H,5H)-dione] | 10 to 100 |  |
| C[C@@H]1Cc2c([nH]c3ccccc23)[C@@H](c2c(F)cc(N3CC[C@@H](CN4CCC(C(=O)N5Cc6cc7c(cc6C5)C(=O)N(C5CCC(=O)NC5=O)C7=O)CC4)C3)cc2F)N1CC(F)F (stereo partly drawn) [E 91, 6-(1-(((S)-1-(4-((1R,3R)-2-(2,2-difluoroethyl)-3-methyl-2,3,4,9-tetrahydro-1H-pyrido[3,4-b]indol-1-yl)-3,5-difluorophenyl)pyrrolidin-3-yl)methyl)piperidine-4-carbonyl)-2-(2,6-dioxopiperidin-3-yl)-6,7-dihydropyrrolo[3,4-f]isoindole-1,3(2H,5H)-dione] | < 10 |  |
| C[C@@H]1Cc2c([nH]c3ccccc23)[C@@H](c2c(F)cc(N3CC4(CC(C(=O)N5CCC(N6Cc7cc8c(cc7C6)C(=O)N(C6CCC(=O)NC6=O)C8=O)CC5)C4)C3)cc2F)N1CC(F)F (stereo partly drawn) [E 116, 6-(1-(2-(4-((1R,3R)-2-(2,2-difluoroethyl)-3-methyl-2,3,4,9-tetrahydro-1H-pyrido[3,4-b]indol-1-yl)-3,5-difluorophenyl)-2-azaspiro[3.3]heptane-6-carbonyl)piperidin-4-yl)-2-(2,6-dioxopiperidin-3-yl)-6,7-dihydropyrrolo[3,4-f]isoindole-1,3(2H,5H)-dione] | < 10 |  |
| C[C@@H]1Cc2c([nH]c3ccccc23)[C@@H](c2c(F)cc(CN3CCC4(CC3)CC(CN3Cc5cc6c(cc5C3)C(=O)N(C3CCC(=O)NC3=O)C6=O)C4)cc2F)N1CC(F)F (stereo partly drawn) [E 370, 6-((7-(4-((1R,3R)-2-(2,2-difluoroethyl)-3-methyl-2,3,4,9-tetrahydro-1H-pyrido[3,4-b]indol-1-yl)-3,5-difluorobenzyl)-7-azaspiro[3.5]nonan-2-yl)methyl)-2-(2,6-dioxopiperidin-3-yl)-6,7-dihydropyrrolo[3,4-f]isoindole-1,3(2H,5H)-dione] | > 100 |  |
| C[C@@H]1Cc2c([nH]c3ccccc23)[C@@H](c2c(F)cc(N3CCC(N4CCC(N5Cc6cc7c(cc6C5)C(=O)N(C5CCC(=O)NC5=O)C7=O)CC4)CC3)cc2F)N1CC(F)F (stereo partly drawn) [E 87, 6-(1′-(4-((1R,3R)-2-(2,2-difluoroethyl)-3-methyl-2,3,4,9-tetrahydro-1H-pyrido[3-4-b]indol-1-yl)-3,5-difluorophenyl)-[1,4′-bipiperidin]-4-yl)-2-(2,6-dioxopiperidin-3-yl)-6,7-dihydropyrrolo[3,4-f]isoindole-1,3(2H,5H)-dione] | > 100 |  |
| C[C@@H]1Cc2cc(O)ccc2[C@@H](c2c(F)cc(N3CCC(CN4CCC(N5Cc6cc7c(cc6C5)C(=O)N(C5CCC(=O)NC5=O)C7=O)CC4)CC3)cc2F)N1CC(F)F (stereo partly drawn) [E 466, 6-(1-((1-(4-((1S,3R)-2-(2,2-difluoroethyl)-6-hydroxy-3-methyl-1,2,3,4-tetrahydroisoquinolin-1-yl)-3,5-difluorophenyl)piperidin-4-yl)methyl)piperidin-4-yl)-2-(2,6-dioxopiperidin-3-yl)-6,7-dihydropyrrolo[3,4-f]isoindole-1,3(2H,5H)-dione] |  | > 100 |
| C[C@@H]1Cc2cc(O)ccc2[C@@H](c2c(F)cc(N3CCC(C(=O)N4CCC(N5Cc6cc7c(cc6C5)C(=O)N(C5CCC(=O)NC5=O)C7=O)CC4)CC3)cc2F)N1CC(F)F (stereo partly drawn) [E 463, 6-(1-(1-(4-((1S,3R)-2-(2,2-difluoroethyl)-6-hydroxy-3-methyl-1,2,3,4-tetrahydroisoquinolin-1-yl)-3,5-difluorophenyl)piperidine-4-carbonyl)piperidin-4-yl)-2-(2,6-dioxopiperidin-3-yl)-6,7-dihydropyrrolo[3,4-f]isoindole-1,3(2H,5H)-dione] |  | < 10 |
